Assay [1] relates to Rattus norvegicus. Nature of the assay: Antihyperglycemic activity in albino Rattus norvegicus Sprague-Dawley (rat) streptozotocin-induced diabetic model assessed as effect on AUC of blood glucose level at 100 mg/kg, po after 24 hr. In kind it is functional.
Assay [2] has as its system Rattus norvegicus. Nature of the assay: Antihyperglycemic activity in albino Rattus norvegicus Sprague-Dawley (rat) streptozotocin-induced diabetic model assessed as effect on AUC of blood glucose level at 100 mg/kg, po after 5 hr. Format: functional.

Data on ten compounds can be found in ChEMBL document CHEMBL3044738, “Synthesis of analogues of antihyperglycemic lead karanjin” (2011).

For `COc1c(-c2ccccc2)oc2c3c(ccc2c1=O)OCC3` [2',3'-DIHYDROKARANJIN], the Activity turned out to be 9.8% in the assay with Rattus norvegicus [1] and 6.2% in the assay with Rattus norvegicus [2].

Take `O=c1c(O)c(-c2ccccc2)oc2c3c(ccc12)OCC3` [2',3'-DIHYDROKARANJONOL]: the Activity in the assay with Rattus norvegicus [1] came to 5.3%; in the assay on Rattus norvegicus [2], 7%.

Consider `CCN(CC)CC(O)COc1c(-c2ccccc2)oc2c(ccc3occc32)c1=O` (stereo not given) [3-(3-DIETHYLAMINO-2-HYDROXY-PROPYL)-KARANJONOL], for which the Activity in the assay on Rattus norvegicus [1] is reported as -37%; in the assay on Rattus norvegicus [2] it was -4.8%.

Take `O=C(COc1c(-c2ccccc2)oc2c(ccc3occc32)c1=O)c1ccccc1` [3-O-(2-OXO-2-PHENYL-ETHYL)-KARANJONOL]: the values for the Activity with Rattus norvegicus [1] and in the assay on Rattus norvegicus [2] were 22.9% and 15.4%, respectively.

Regarding `C=CCOc1c(-c2ccccc2)oc2c(ccc3occc32)c1=O` [3-O-ALLYLKARANJONOL], the Activity in the assay on Rattus norvegicus [1] is listed as -16.6%; in the assay on Rattus norvegicus [2] it was -33%.

As for `CC(C)Oc1c(-c2ccccc2)oc2c(ccc3occc32)c1=O` [3-O-ISOPROPYLKARANJONOL], the Activity in the assay with Rattus norvegicus [1] was -15.4%; in the assay with Rattus norvegicus [2], -26.9%.

For `CC(=O)OC[C@H]1O[C@@H](Oc2c(-c3ccccc3)oc3c(ccc4occc43)c2=O)[C@H](OC(C)=O)[C@@H](OC(C)=O)[C@@H]1OC(C)=O` [3-OTETRAACETYLGLUCOPYRANOSYLKARANJONOL], the Activity with Rattus norvegicus [1] is 0.5%; in the assay on Rattus norvegicus [2] it was 9.7%.

In the case of `COc1c(-c2ccccc2)oc2c(ccc3occc32)c1=O` [KARANJIN], the figures for the Activity in the assay on Rattus norvegicus [1] and in the assay on Rattus norvegicus [2] were -42.6% and -30.8%, respectively.

As to `O=c1c(O)c(-c2ccccc2)oc2c1ccc1occc12` [KARANJONOL], the Activity in the assay on Rattus norvegicus [1] was -39%; in the assay on Rattus norvegicus [2], -37.2%.

For `CN(C)C(=N)NC(=N)N` [METFORMIN], the Activity with Rattus norvegicus [1] is 25%; in the assay on Rattus norvegicus [2], -26.7%.
